Reference: patent publication US5814640A, “Method of treating gastrointestinal malignancies” (Montefiore Medical Center, priority 1997, dated 1998)

Assays:
SW480 = assay: Cytokinetic studies (cell cycle distribution by flow cytometry), SW480; assay type: cell-based, human
Experimental: Cells were cultured in RPMI 1640 with 10% fetal calf serum.
The DNA content of propidium-iodide stained nuclei was measured by flow cytometry. Cells in early exponential growth were incubated with or without drug, trypsinized and washed twice in PBS. A total of 10^6 viable cells, as determined by trypan blue exclusion, were permeabilized in sucrose-citrate-DMSO buffer as described by Vindelov et al., enucleated with trypsin and incubated with RNAse. Stripped nuclei were stained with propidium iodide at a final concentration of 2.5 ug/ml. Correlated dual parameter measurements of DNA content (from propidium-iodide red fluorescence excited at 488 nm) versus forward angle light scatter were performed using an EPICS C flow cytometer equipped with a 5W ultraviolet enhanced argon ion laser. Histograms consisting of a minimum of 10,000 nuclei were analyzed off-line with an EPICS C to RSX-11M conversion program (EPICOPY) and subsequently analyzed with ROMP and ROC3D programs rewritten for a DEC 11/73 computer. Cell cycle analysis for the compartmental boundaries and number of cells in the G1, S, and G2M phases was performed on ROMP-readable files using either a multiple gaussian fitting routine developed by Dean et al. or, for the perturbed histograms, a parametric method based on multiple broadened rectangles.

colorectal cancer = settings: cited from earlier work
HT-29 = assay: Cytokinetic studies (cell cycle distribution by flow cytometry), HT-29; assay type: cell-based, human
Experimental: Cells were cultured in RPMI 1640 with 10% fetal calf serum. Doubling times for these cell lines are 18 and 25 hours.
The DNA content of propidium-iodide stained nuclei was measured by flow cytometry. Cells in early exponential growth were incubated with or without drug, trypsinized and washed twice in PBS. A total of 10^6 viable cells, as determined by trypan blue exclusion, were permeabilized in sucrose-citrate-DMSO buffer as described by Vindelov et al., enucleated with trypsin and incubated with RNAse. Stripped nuclei were stained with propidium iodide at a final concentration of 2.5 ug/ml. Correlated dual parameter measurements of DNA content (from propidium-iodide red fluorescence excited at 488 nm) versus forward angle light scatter were performed using an EPICS C flow cytometer equipped with a 5W ultraviolet enhanced argon ion laser. Histograms consisting of a minimum of 10,000 nuclei were analyzed off-line with an EPICS C to RSX-11M conversion program (EPICOPY) and subsequently analyzed with ROMP and ROC3D programs rewritten for a DEC 11/73 computer. Cell cycle analysis for the compartmental boundaries and number of cells in the G1, S, and G2M phases was performed on ROMP-readable files using either a multiple gaussian fitting routine developed by Dean et al. or, for the perturbed histograms, a parametric method based on multiple broadened rectangles. […]

[1] = 5-fluorouracil 50-500 uM, 24 hour incubation
[2] = alone or in combination, data not shown

**Q.** With `O=c1[nH]cc(F)c(=O)[nH]1` [5-fluorouracil] as the compound, how does the “G2M compartment, dose response” value (SW480; [1]) read?
**A.** Its value is “nearly complete depletion of G2M”.

**Q.** What about the “accumulation of cells in S and G2M” value (SW480; 24 hours, alone or in combination, data not shown) of the same compound?
**A.** The value was “concomitant decrease in the accumulation of cells in S and G2M at 24 hours”.

**Q.** What about the “block in G0/G1” value (SW480; [2]) of the same compound?
**A.** The value was “prolongation of the block in G0/G1 to 24 hours”.

**Q.** And the “effects on cell cycle distribution compared with HT-29” value (SW480; [2])?
**A.** Its value is “qualitatively identical effects”.

**Q.** What about the “median survival of treated patients” value (colorectal cancer; compared with untreated controls) of the same compound?
**A.** The value was “no better than that of untreated controls”.

**Q.** And the remissions in patients (colorectal cancer; disseminated colorectal cancer)?
**A.** Its remissions in patients is 15-35 % of patients.

**Q.** What about the “G2M compartment, dose response” value (HT-29; [1]) of the same compound?
**A.** Its value is “nearly complete depletion of G2M”.

**Q.** What about the “time of G2M depletion from start of incubation” value (HT-29; time course, 5-fluorouracil 50 uM, alpha-2a-interferon 500 U/ml) of the same compound?
**A.** Its value is ≤ 7 h.
